Data on 18 compounds can be found in patent publication US11912668B2, “GCN2 and perk kinase inhibitors and methods of use thereof” (Deciphera Pharmaceuticals, LLC, priority 2020, dated 2024).

Each structure is given as a SMILES string.

The test system of experiment [1] is phospho-GCN2 (Thr899) in HCT116 colorectal cancer cells. As to the kind of experiment: HCT116 amino acid starved (-AA) phospho-GCN2 assay (Western blot). The format is cell-based. The following applies: Homo sapiens, HCT-116, 4 h, read-out: HCT116-AA pGCN2 Western Blot. How it is done: (§1) HCT116 colorectal cancer cells (catalog #CCL-247) were obtained from the American Type Culture Collect (ATTC, Manassas, VA). Briefly, cells were grown in RPMI 1640 supplemented with 10% heat inactivated fetal bovine serum (Invitrogen, Carlsbad, CA) and 1% Penicillin/Streptomycin/L-Glutamine at 37° C., 5% CO2, and 95% humidity. Cells were expanded until reaching 70-95% confluency at which point they were subcultured or harvested for assay use. Cells were seeded in 12-well culture plate at five hundred thousand cells per well in 1 mL complete growth medium and incubated overnight at 37° C., 5% CO2, and 95% humidity. The next day each well was replaced with 1 mL Earle's Balanced Salt Solution (EBSS, Invitrogen, Carlsbad, CA) supplemented with 10% Dialyzed Fetal Bovine Serum, 5.5 mM Glucose, 1% Penicillin/Streptomycin and 1% Vitamin solution (thermo #11120052). A serial dilution of test compound was dispensed into well. Plates were incubated for 4 h at 37° C., 5% CO2, and 95% humidity. At the end of the incubation, cells were washed with PBS supplemented with 1× Halt protease inhibitor, 1× Halt phosphatase inhibitor, 1× Sigma phosphatase inhibitor cocktail 2 and 1×EDTA and then lysed with M-PER Mammalian Protein Extraction Reagent supplemented with 3× of the inhibitor mix as described above. Cell lysates were sonicated with water bath sonicator (Qsonica, Newtown, CT) and supernatants were boiled with SDS buffer and reducing agent. Western blot was performed on each lysate to quantify phospho-GCN2 (Thr899), total GCN2, ATF4 and beta-Actin. Membranes were imaged with LI-COR Odyssey CLx Imaging System (LI-COR, Lincoln, NE). Data were analyzed using GraphPad Prism software (GraphPad, San Diego, CA) to calculate IC50 values.

The subject of another experiment is CCRF-CEM leukemia cells. As to the kind of experiment: CCRF-CEM ASNase cell proliferation assay, phenotypic assay for cellular inhibition of GCN2. The following applies: Homo sapiens; ASNase treated CCRF-CEM cells, 1 mU/mL ASNase, 72 h. In kind it is cell-based. How it is done: CCRF-CEM leukemia cells (catalog #CCL-116) were obtained from the American Type Culture Collect (ATTC, Manassas, VA). Cells were grown in RPMI-1640 medium supplemented with 10% heat-inactivated fetal bovine serum (Invitrogen, Carlsbad, CA) and 1% Penicillin/Streptomycin/L-Glutamine at 37° C., 5% CO2, and 95% humidity. Cells were expanded until reaching one million cells per mL at which time they are subcultured or harvested for assay use. Ten thousand cells per well in 200 μL RPMI-1640 supplemented with 10% heat-inactivated fetal bovine serum and 1% Penicillin/Streptomycin were dispensed into a 96-well black clear bottom plate. A serial dilution of test compound and 1 mU/mL ASNase was added in triplicate and plates were incubated for 72 h at 37° C., 5% CO2, and 95% humidity. At the end of the incubation, 40 μL of a […] solution of resazurin (Sigma, St. Louis, MO) in PBS was added to each well of the plate and plates were incubated for an additional 6 h at 37° C., 5% CO2, and 95% humidity. Plates were read on a Synergy2 or equivalent reader (Biotek, Winooski VT) using an excitation of 540 nm and an emission of 600 nm. Data was analyzed using GraphPad Prism software (GraphPad, San Diego, CA) to calculate IC50 values.

Experiment [2] deals with ATF4 in HCT116 colorectal cancer cells. As to the kind of experiment: HCT116 amino acid starved (-AA) ATF4 assay (Western blot). In kind it is cell-based. The note with it: Homo sapiens, HCT-116, 4 h. How it is done:
as §1

Experiment [3] has as its system ATF4 in CCRF-CEM leukemia cells (PERK). The experiment is described as follows: CCRF-CEM TG ATF4 ELISA, phenotypic assay for cellular inhibition of PERK preactivated by thapsigargin. The format is cell-based. The following applies: Homo sapiens; Thapsigargin (1 μM) stimulated CCRF-CEM cells. How it is done: CCRF-CEM leukemia cells (catalog #CCL-116) were obtained from the American Type Culture Collection (ATTC, Manassas, VA). Briefly, cells were grown in RPMI-1640 medium supplemented with 10% heat-inactivated fetal bovine serum (Invitrogen, Carlsbad, CA) and 1% Penicillin/Streptomycin/L-Glutamine at 37° C., 5% CO2, and 95% humidity. Cells were expanded until reaching one million cells per mL at which time they were subcultured or harvested for assay use. One million five hundred thousand cells per well in 1 mL complete growth medium were dispensed into 12-well plates and incubated overnight. A serial dilution of test compound was added and cells were incubated at 37° C., 5% CO2, and 95% for three hours, then 1 μM thapsigargin was added and cells were incubated for an additional hour at 37° C., 5% CO2, and 95%. Cells were lysed then ATF4 levels were measured using an ELISA assay (Proteintech, Rosemont, IL). Absorbance was measured at 450 nm and 544 nM using a Synergy2 or equivalent reader (Biotek, Winooski VT). Data was analyzed using PRISM software (Graphpad, San Diego, CA) to calculate IC50 values.
In general terms: ELISA stands for enzyme-linked immunosorbent assay.

Another experiment has as its target PERK kinase (Homo sapiens (Human), UniProt Q9NZJ5). As to the kind of experiment: Biochemical assay for PERK (coupled pyruvate kinase/lactate dehydrogenase assay). The following applies: 1 mM ATP, rate from 2-3 h time frame. In outline:
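Coupled pyruvate kinase/lactate dehydrogenase readout of ATP hydrolysis via NADH oxidation (A340), 10 nM PERK, 0.25 mg/mL myelin basic protein, 1 mM ATP, pH 7.5 Tris/MgCl2 buffer, 1% DMSO. Absorbance followed 6 h at 30° C; rate from the 2-3 h window, normalised to no-compound and known-inhibitor controls, IC50 fitted.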

In a further experiment the target is GCN2 kinase (Homo sapiens (Human), UniProt Q9P2K8). The experiment is described as follows: Biochemical assay for GCN2 (TR-FRET kinase activity assay). The note with it: 1 mM ATP, 3-hour incubation. In outline: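 TR-FRET assay with 2 nM GCN2, 130 nM GFP-eIF2α substrate, 0.2 mg/mL E. coli tRNA and 1 mM ATP; compounds (0.5% DMSO) reacted 3 h. Stopped with 20 mM EDTA plus 2 nM Tb-anti-peIF2α (pSer52), 60 min RT; 520/490 ratio converted to % inhibition, IC50 from four-parameter fit.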
On the technique in general: TR-FRET usually uses a lanthanide donor and a delayed reading to cut background.

Chain of GCN2 kinase (Q9P2K8 whole entry): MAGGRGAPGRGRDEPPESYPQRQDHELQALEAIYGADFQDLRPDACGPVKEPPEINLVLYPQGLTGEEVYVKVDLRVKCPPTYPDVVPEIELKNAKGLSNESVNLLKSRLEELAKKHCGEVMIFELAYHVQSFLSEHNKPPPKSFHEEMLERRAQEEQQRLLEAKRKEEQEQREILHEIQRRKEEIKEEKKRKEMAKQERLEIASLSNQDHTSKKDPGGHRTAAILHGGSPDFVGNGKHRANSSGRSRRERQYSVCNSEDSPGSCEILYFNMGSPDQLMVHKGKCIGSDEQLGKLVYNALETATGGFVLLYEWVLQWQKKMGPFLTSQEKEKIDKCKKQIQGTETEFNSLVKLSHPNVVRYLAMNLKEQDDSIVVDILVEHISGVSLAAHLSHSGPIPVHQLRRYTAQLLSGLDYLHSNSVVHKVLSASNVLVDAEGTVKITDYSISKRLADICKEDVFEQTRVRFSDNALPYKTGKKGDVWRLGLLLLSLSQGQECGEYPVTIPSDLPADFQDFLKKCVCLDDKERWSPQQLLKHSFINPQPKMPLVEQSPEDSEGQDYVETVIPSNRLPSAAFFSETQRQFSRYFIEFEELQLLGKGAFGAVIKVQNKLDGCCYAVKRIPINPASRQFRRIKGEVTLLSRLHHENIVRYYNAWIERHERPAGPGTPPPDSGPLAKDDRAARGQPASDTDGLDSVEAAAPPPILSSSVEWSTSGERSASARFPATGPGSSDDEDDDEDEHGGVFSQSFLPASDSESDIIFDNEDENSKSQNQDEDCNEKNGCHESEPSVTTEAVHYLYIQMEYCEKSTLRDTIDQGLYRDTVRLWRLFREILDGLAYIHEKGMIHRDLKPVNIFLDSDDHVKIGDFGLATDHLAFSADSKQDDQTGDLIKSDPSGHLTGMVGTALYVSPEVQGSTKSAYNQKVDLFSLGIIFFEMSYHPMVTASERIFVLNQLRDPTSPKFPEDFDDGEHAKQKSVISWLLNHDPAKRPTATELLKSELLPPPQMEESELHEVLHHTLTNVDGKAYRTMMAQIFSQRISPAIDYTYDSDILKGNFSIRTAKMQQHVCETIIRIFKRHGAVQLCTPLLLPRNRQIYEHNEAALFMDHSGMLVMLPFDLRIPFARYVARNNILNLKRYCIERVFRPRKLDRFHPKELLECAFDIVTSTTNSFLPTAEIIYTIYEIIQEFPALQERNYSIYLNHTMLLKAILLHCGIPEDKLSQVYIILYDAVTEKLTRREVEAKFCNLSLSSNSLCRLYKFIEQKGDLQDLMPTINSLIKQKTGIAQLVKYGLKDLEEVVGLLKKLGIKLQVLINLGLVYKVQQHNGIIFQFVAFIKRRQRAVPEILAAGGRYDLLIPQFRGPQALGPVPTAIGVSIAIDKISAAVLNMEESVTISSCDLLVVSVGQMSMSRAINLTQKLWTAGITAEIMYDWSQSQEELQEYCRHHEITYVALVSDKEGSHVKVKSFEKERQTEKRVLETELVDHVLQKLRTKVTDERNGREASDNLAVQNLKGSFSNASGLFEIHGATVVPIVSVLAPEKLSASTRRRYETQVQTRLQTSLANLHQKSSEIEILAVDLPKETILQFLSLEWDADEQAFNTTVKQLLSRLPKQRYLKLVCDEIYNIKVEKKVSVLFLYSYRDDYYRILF
Chain of PERK kinase (Q9NZJ5 other isoform, or with tags, fused parts or gaps): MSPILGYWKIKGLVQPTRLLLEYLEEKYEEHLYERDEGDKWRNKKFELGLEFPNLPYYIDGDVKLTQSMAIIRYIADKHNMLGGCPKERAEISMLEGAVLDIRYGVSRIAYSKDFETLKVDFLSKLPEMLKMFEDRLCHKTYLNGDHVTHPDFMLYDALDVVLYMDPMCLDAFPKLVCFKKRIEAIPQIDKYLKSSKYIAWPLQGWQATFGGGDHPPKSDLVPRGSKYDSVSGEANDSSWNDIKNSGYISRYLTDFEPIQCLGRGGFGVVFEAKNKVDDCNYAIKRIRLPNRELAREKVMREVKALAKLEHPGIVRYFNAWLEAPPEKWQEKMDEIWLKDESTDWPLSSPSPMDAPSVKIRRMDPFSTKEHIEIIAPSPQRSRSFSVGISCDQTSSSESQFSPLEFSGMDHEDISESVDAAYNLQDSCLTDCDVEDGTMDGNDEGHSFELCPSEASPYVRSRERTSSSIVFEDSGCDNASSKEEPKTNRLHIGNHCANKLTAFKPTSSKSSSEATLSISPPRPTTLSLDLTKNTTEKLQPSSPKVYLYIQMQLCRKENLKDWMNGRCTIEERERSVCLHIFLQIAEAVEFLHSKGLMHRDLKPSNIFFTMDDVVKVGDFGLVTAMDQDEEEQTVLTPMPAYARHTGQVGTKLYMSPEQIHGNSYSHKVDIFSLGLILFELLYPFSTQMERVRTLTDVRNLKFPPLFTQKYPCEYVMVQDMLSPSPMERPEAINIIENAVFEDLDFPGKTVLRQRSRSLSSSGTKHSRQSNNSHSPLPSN

Consider `COc1ncc(Cl)cc1S(=O)(=O)Nc1cccc(-c2cnc3nc(Nc4cnn(C)c4)ncc3c2)c1` [Example 59], for which the IC50 in experiment [1] is ≤ 0.1 µM; with CCRF-CEM leukemia cells, ≤ 0.1 µM; in experiment [2] it was ≤ 0.1 µM; in experiment [3], 1 to 10 µM; against PERK kinase, 0.1 to 0.5 µM; at GCN2 kinase, ≤ 0.1 µM.
On to `CNc1ncc2cc(-c3cccc(NS(=O)(=O)c4cc(Cl)cnc4OC)c3F)c(N)nc2n1` [Example 61], for which the IC50 in experiment [1] was ≤ 0.1 µM; with CCRF-CEM leukemia cells, ≤ 0.1 µM; in experiment [2], ≤ 0.1 µM; in experiment [3], 0.1 to 0.5 µM; on PERK kinase, ≤ 0.1 µM; at GCN2 kinase it was ≤ 0.1 µM.
As for `CNc1ncc2cc(-c3cccc(NS(=O)(=O)c4cc(Cl)cnc4OC)c3Cl)ccc2n1` [Example 62], the IC50 in experiment [1] was ≤ 0.1 µM; in the experiment with CCRF-CEM leukemia cells, ≤ 0.1 µM; in experiment [2], 0.1 to 0.5 µM; in experiment [3] it was 1 to 10 µM; at PERK kinase, ≤ 0.1 µM; at GCN2 kinase it was ≤ 0.1 µM.
On to `CNc1ncc2cc(-c3cc(F)cc(NS(=O)(=O)c4cc(Cl)cnc4OC)c3)c(N)nc2n1` [Example 63], for which the IC50 is ≤ 0.1 µM in experiment [1]; ≤ 0.1 µM in the experiment with CCRF-CEM leukemia cells; ≤ 0.1 µM in experiment [2]; 1 to 10 µM in experiment [3]; ≤ 0.1 µM against PERK kinase; ≤ 0.1 µM on GCN2 kinase.
On to `CNc1ncc2cc(-c3cccc(NS(=O)(=O)c4cc(Cl)cnc4OC)c3)c(N)nc2n1` [Example 64], for which the IC50 is ≤ 0.1 µM in experiment [1]; ≤ 0.1 µM in the experiment on CCRF-CEM leukemia cells; ≤ 0.1 µM in experiment [2]; 1 to 10 µM in experiment [3]; 0.1 to 0.5 µM against PERK kinase; ≤ 0.1 µM against GCN2 kinase.
As to `CNc1ncc2cc(-c3cccc(NS(=O)(=O)c4cc(Cl)cnc4OC)c3F)c(OC)nc2n1` [Example 66], the IC50 in experiment [1] is ≤ 0.1 µM; in the experiment on CCRF-CEM leukemia cells it was ≤ 0.1 µM; in experiment [2] it was ≤ 0.1 µM; in experiment [3], 1 to 10 µM; against PERK kinase it was ≤ 0.1 µM; on GCN2 kinase it was ≤ 0.1 µM.
For the compound `CNc1ncc2cc(-c3cccc(NS(=O)(=O)c4cc(Cl)cnc4OC)c3Cl)c(C)nc2n1` [Example 67], the IC50 is ≤ 0.1 µM in experiment [1]; ≤ 0.1 µM in the experiment on CCRF-CEM leukemia cells; ≤ 0.1 µM in experiment [2]; 1 to 10 µM in experiment [3]; ≤ 0.1 µM on PERK kinase; ≤ 0.1 µM on GCN2 kinase.
Take `CNc1ncc2cc(-c3cc(NS(=O)(=O)c4cc(Cl)cnc4OC)ccc3Cl)c(C)nc2n1` [Example 68]: the IC50 is ≤ 0.1 µM in experiment [1]; ≤ 0.1 µM with CCRF-CEM leukemia cells; ≤ 0.1 µM in experiment [2]; 1 to 10 µM in experiment [3]; ≤ 0.1 µM against PERK kinase; ≤ 0.1 µM against GCN2 kinase.
Take `CNc1ncc2cc(-c3cccc(NS(=O)(=O)c4cc(Cl)cc(C(C)(C)O)c4Cl)c3F)c(NC)nc2n1` [Example 74]: the IC50 in experiment [1] was ≤ 0.1 µM; with CCRF-CEM leukemia cells, ≤ 0.1 µM; in experiment [2] it was ≤ 0.1 µM; in experiment [3] it was 1 to 10 µM; at PERK kinase, 0.1 to 0.5 µM; against GCN2 kinase, 0.1 to 0.5 µM.
In the case of `COc1ncc(Cl)cc1S(=O)(=O)Nc1cccc(-c2cc3cnc(N)cc3nc2C)c1F` [Example 77], the IC50 in experiment [1] was ≤ 0.1 µM; in the experiment on CCRF-CEM leukemia cells, ≤ 0.1 µM; in experiment [2], ≤ 0.1 µM; in experiment [3], 0.1 to 0.5 µM; on PERK kinase, ≤ 0.1 µM; against GCN2 kinase it was ≤ 0.1 µM.
On to `CNc1cc2nc(C)c(-c3cccc(NS(=O)(=O)c4cc(Cl)cnc4NC)c3F)cc2cn1` [Example 78], for which the IC50 is ≤ 0.1 µM in experiment [1]; ≤ 0.1 µM in the experiment with CCRF-CEM leukemia cells; ≤ 0.1 µM in experiment [2]; 0.5 to 1 µM in experiment [3]; ≤ 0.1 µM on PERK kinase; ≤ 0.1 µM on GCN2 kinase.
As to `COc1ncc(Cl)cc1S(=O)(=O)Nc1cccc(-c2cc3cnc(NC(C)=O)cc3nc2C)c1F` [Example 84], the IC50 in experiment [1] is ≤ 0.1 µM; in the experiment with CCRF-CEM leukemia cells, ≤ 0.1 µM; in experiment [2], ≤ 0.1 µM; in experiment [3], 0.1 to 0.5 µM; on PERK kinase, ≤ 0.1 µM; against GCN2 kinase it was ≤ 0.1 µM.
As for `COc1ncc(Cl)cc1S(=O)(=O)Nc1cccc(-c2cnc3cc(N)ncc3c2)c1F` [Example 85], the IC50 in experiment [1] is ≤ 0.1 µM; in the experiment with CCRF-CEM leukemia cells, ≤ 0.1 µM; in experiment [2], ≤ 0.1 µM; in experiment [3], 1 to 10 µM; against PERK kinase, ≤ 0.1 µM; on GCN2 kinase, ≤ 0.1 µM.
Take `COc1ncc(Cl)cc1S(=O)(=O)Nc1cc(F)cc(-c2cc3cnc(Nc4cnn(C)c4)nc3nc2C)c1` [Example 87]: the IC50 is ≤ 0.1 µM in experiment [1]; ≤ 0.1 µM with CCRF-CEM leukemia cells; ≤ 0.1 µM in experiment [2]; 1 to 10 µM in experiment [3]; ≤ 0.1 µM against PERK kinase; ≤ 0.1 µM on GCN2 kinase.
`COc1ncc(Cl)cc1S(=O)(=O)Nc1cccc(-c2cc3cnc(Nc4cnn(C)c4)nc3nc2C)c1F` [Example 88]: the IC50 in experiment [1] was ≤ 0.1 µM; in the experiment with CCRF-CEM leukemia cells, ≤ 0.1 µM; in experiment [2], ≤ 0.1 µM; in experiment [3], 0.1 to 0.5 µM; on PERK kinase, ≤ 0.1 µM; against GCN2 kinase, ≤ 0.1 µM.
In the case of `CNc1ncc2cc(-c3cccc(NS(=O)(=O)c4cc(Cl)cnc4OC)c3OC)c(C)nc2n1` [Example 89], the IC50 in experiment [1] is ≤ 0.1 µM; in the experiment on CCRF-CEM leukemia cells, 0.1 to 0.5 µM; in experiment [2] it was 0.1 to 0.5 µM; in experiment [3], 1 to 10 µM; against PERK kinase, ≤ 0.1 µM; against GCN2 kinase, 0.1 to 0.5 µM.
Take `CNc1ncc2cc(-c3cccc(NS(=O)(=O)c4cc(Cl)cnc4NC)c3F)c(C)nc2n1` [Example 90]: the IC50 in experiment [1] was ≤ 0.1 µM; with CCRF-CEM leukemia cells, ≤ 0.1 µM; in experiment [2] it was ≤ 0.1 µM; in experiment [3] it was 1 to 10 µM; against PERK kinase, ≤ 0.1 µM; against GCN2 kinase, ≤ 0.1 µM.
Regarding `COc1ncc(Cl)cc1S(=O)(=O)Nc1cc(F)cc(-c2cc3cnc(N)nc3nc2N)c1` [Example 92], the IC50 in experiment [1] was ≤ 0.1 µM; in the experiment on CCRF-CEM leukemia cells, ≤ 0.1 µM; in experiment [2], ≤ 0.1 µM; in experiment [3], 1 to 10 µM; at PERK kinase it was ≤ 0.1 µM; on GCN2 kinase, ≤ 0.1 µM.
